From PubChem BioAssay (NCI)
Where “and” joins values, the source holds several entries; their conditions need not be identical. Identical values can stand only once.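 All cell lines were grown in 96-well plates and treated with compound for 48 hours. GI50 marks 50% less growth. Definition used: TGI = concentration required for complete inhibition of growth.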

What was measured:
Assay in all cases: growth of human tumour cells (NCI), 48 h
A498 renal = tested on: A498 renal
HCC-2998 colon = tested on: HCC-2998 colon
KM12 colon = tested on: KM12 colon
NCI-H460 lung = tested on: NCI-H460 lung
OVCAR-4 ovarian = tested on: OVCAR-4 ovarian
SK-MEL-2 melanoma = tested on: SK-MEL-2 melanoma
SK-MEL-28 melanoma = tested on: SK-MEL-28 melanoma
SNB-19 CNS = tested on: SNB-19 CNS
SNB-75 CNS = tested on: SNB-75 CNS
U251 CNS = tested on: U251 CNS

Compound | TGI (A498 renal) | TGI (HCC-2998 colon) | TGI (KM12 colon) | TGI (NCI-H460 lung) | TGI (OVCAR-4 ovarian) | TGI (SK-MEL-2 melanoma) | TGI (SK-MEL-28 melanoma) | TGI (SNB-19 CNS) | TGI (SNB-75 CNS) | TGI (U251 CNS) | GI50 (A498 renal) | GI50 (HCC-2998 colon) | GI50 (KM12 colon) | GI50 (NCI-H460 lung) | GI50 (OVCAR-4 ovarian) | GI50 (SK-MEL-2 melanoma) | GI50 (SK-MEL-28 melanoma) | GI50 (SNB-19 CNS) | GI50 (SNB-75 CNS) | GI50 (U251 CNS)
C[N+](C)(C)CC(=O)N/N=C(\C(=O)NC1=C(Cl)C(=O)c2ccccc2C1=O)C(C#N)c1csc(-c2ccc([N+](=O)[O-])cc2)n1 (centres undefined) | > 100 µM | > 100 µM | > 100 µM | > 100 µM | > 100 µM | > 100 µM | > 100 µM | > 100 µM | > 100 µM | > 100 µM | – | – | – | – | – | – | – | – | – | –
Cn1c(=O)c2nc(-c3ccc(Cl)cc3)oc2n(C)c1=O | > 100 µM | > 100 µM | > 100 µM | > 100 µM | > 100 µM | > 100 µM | > 100 µM | > 100 µM | > 100 µM | > 100 µM | – | – | – | – | – | – | – | – | – | –
Nc1ccn(C2OC(COC(=O)C34CC5CC(CC(C5)C3)C4)C(O)C2O)c(=O)n1 (centres undefined) | > 100 µM | > 100 µM | > 100 µM | > 40.8 µM | > 100 µM | > 100 µM | > 100 µM | > 100 µM | > 100 µM | > 100 µM | – | – | – | – | – | – | – | – | – | –
O=C1/C(=C\c2ccccn2)c2ccccc2N1c1c(Cl)cccc1Cl | 5.98 µM | 3.3 µM | 3.22 µM | 3.65 µM | 26.8 µM | 6.32 µM | 4.03 µM | 6.25 µM | 15.4 µM | 3.68 µM | 2.1 µM | 1.86 µM | 1.69 µM | 1.88 µM | 3.14 µM | 2.53 µM | 1.84 µM | 2.28 µM | 2.01 µM | 1.84 µM
COc1cc(Nc2nc3ccccc3cc2C(=O)Nc2ccc(F)c(F)c2)cc(OC)c1OC | 8.25 µM | > 100 µM | 16 µM | > 100 µM | 8.56 µM | 5.98 µM | > 100 µM | > 100 µM | 9.35 µM | > 100 µM | 2.39 µM | 4.19 µM | 2.89 µM | 3.11 µM | 2.8 µM | 2.1 µM | 3.54 µM | 3.55 µM | 2.27 µM | 3.36 µM
COC(=O)C(Cc1nc2ccccc2[nH]c1=O)C(=O)C(=O)Nc1ccc([N+](=O)[O-])cc1[N+](=O)[O-] (centres undefined) | 40.9 µM | 33.2 µM | 30.1 µM | 49.2 µM | 64.1 µM | 69 µM | 40.1 µM | > 100 µM | 39.3 µM | 32.5 µM | – | – | – | – | – | – | – | – | – | –
CC(=O)[CH-]C(=O)c1ccccc1.CC(=O)[CH-]C(=O)c1ccccc1.CCOCC[O-].CCOCC[O-].[Ti+4] | 47.9 µM | 43.5 µM | 77.3 µM | 43.4 µM | > 100 µM | 29.6 µM | 27.6 µM | 38.6 µM | 43.8 µM | 42.2 µM | 22.9 µM | 18.4 µM | 27.1 µM | 18.8 µM | 31.9 µM | 14.2 µM | 10.8 µM | 18.1 µM | 16.6 µM | 16 µM
O=Cc1cccc2c1Oc1c(cccc1C(=O)O)S2 | > 100 µM | > 100 µM | 44.3 µM | > 100 µM | > 100 µM | > 100 µM | > 100 µM | > 100 µM | > 100 µM | > 100 µM | – | – | – | – | – | – | – | – | – | –
CCc1cccc(CC)c1NC(=O)C1=C(C)NC(C)=C(C(=O)Nc2c(CC)cccc2CC)C1c1ccc([N+](=O)[O-])cc1 | 64 µM | > 100 µM | 48.8 µM | 45 µM | 33.8 µM | 65.3 µM | 39.9 µM | > 100 µM | > 100 µM | > 100 µM | – | – | – | – | – | – | – | – | – | –
Cc1sc2c(c1C)C(c1ccc(Cl)cc1)=N[C@@H](CC(=O)OC(C)(C)C)c1nnc(C)n1-2 | 1.46 µM and 1.15 µM | 13.8 µM and 14 µM | 23.1 µM and 20.1 µM | 22.6 µM and 19 µM | 17.2 µM and 16.1 µM | 21.8 µM and 22.5 µM | 20.2 µM and 15.2 µM | > 47.2 µM and 18.9 µM | – | 20.6 µM and 19 µM | 0.267 µM and 0.0617 µM | 0.379 µM and 0.291 µM | 2.57 µM and 0.962 µM | 1.55 µM and 0.603 µM | 0.123 µM and 0.15 µM | 5.51 µM and 5.34 µM | 1.98 µM and 0.397 µM | 0.629 µM and 0.421 µM | 0.0325 µM and 0.025 µM | 2.45 µM and 1.24 µM
